Patent US10633375B2, “Oxopicolinamide derivative, preparation method therefor and pharmaceutical use thereof” (Jiangsu Hengrui Medicine Co., Ltd., priority 2016, dated 2020)

Experiments:
[1] = Pharmacokinetics assay in rats after intragastrical administration; type: in vivo, Sprague-Dawley (SD) rats; settings: both sexes, Sprague-Dawley, rat, plasma, po, SD rats, intragastric, 2 mg/kg; for Vd/F: read-out: Apparent Distribution Volume Vz/F; for AUC: read-out: Area Under Curve AUC; for CL/F: read-out: Clearance CLz/F; for half-life: read-out: Half-Life T½ (converted); for MRT: read-out: Mean Residence Time MRT; for Cmax: read-out: Plasma Concentration Cmax
Text: Test Example 3. Pharmacokinetics Assay of the Compounds of the Present Invention
Rats were used as test animals. […] The pharmacokinetic behavior of the compounds of the present invention was studied and evaluated in rats.
56 healthy adult Sprague-Dawley (SD) rats, half male and half female, were purchased from SINO-BRITSH SIPPR/BK LAB. ANIMAL LTD., CO, with License No.: SCXK (Shanghai) 2008-0016.
2.3 Preparation of the Test Compounds
A certain amount of the test compound was weighed, and added with 5% by volume of DMSO, 5% by volume of Tween 80 and 90% normal saline to prepare a 0.2 mg/mL colorless, clear and transparent solution.
After an overnight fast, SD rats were intragastrically administered at a dose of 2.0 mg/kg and an administration volume of 10.0 mL/kg.
Blood (0.2 mL) was taken from the orbital sinus before administration and at 0.5, 1.0, 2.0, 4.0, 6.0, 8.0, 11.0 and 24.0 hours after administration. The samples were stored in heparin anticoagulation tubes, and centrifuged for 10 minutes at 3500 rpm at 4° C. to separate the blood plasma. The plasma samples were stored at −20° C. The rats were fed 2 hours after administration.
The content of the test compound in the plasma of rats after intragastric administration of different concentrations of the drug was determined: 25 μL of rat plasma at each time after administration was taken and added with 30 μL (100 ng/mL) of the internal standard solution of camptothecin and 200 μL of acetonitrile, shaken vertically for 5 minutes, and centrifuged for 10 minutes (4000 rpm). 3.0 μL of the supernatant was taken from the plasma samples for LC/MS/MS analysis.
4. Results of Pharmacokinetic Parameters
Pharmacokinetic parameters of the compounds of the present invention in rats are shown below.

human blood = experiment: In vitro anticoagulant effect on human blood (APTT, CT2); settings: for CT2, concentration doubling APTT: concentration corresponding to 2 times the APTT of the blank control, human plasma
Description: Test Example 2: Determination of In Vitro Anticoagulant Effect of the Compounds of the Present Invention on Human Blood
1. Experimental Materials
Plasma: Human blood was collected in blood collection tubes containing no anticoagulant, and then 3.8% sodium citrate (volume ratio 1:9) was added. The tubes were centrifuged at 2500 rpm for 10 minutes at room temperature, and then the plasma was collected and stored at −80° C.;
Reagents: APTT reagent (Activated partial thromboplastin time assay kit, SIEMENS, Art. No. B4218-1), calcium chloride solution;
Instrument: Coagulation instrument (SYSMEX, CA-500).
The divided plasma was melted at room temperature and mixed well. 10000 μM the test compound dissolved in 100% DMSO was diluted to 3000, 300, 200, 150, 75, 30, 10, 3, 0.3 μM with 100% DMSO, and the blank was 100% DMSO. The reagent, plasma, and compound were placed in corresponding positions in the coagulation instrument, and APTT detection of the compound was carried out.
Curve fitting was carried out by graphpad and CT2 was calculated, i.e., the concentration of the compound corresponding to 2 times the APTT of the blank control.

[2] = target: Coagulation Factor XIa protease (Homo sapiens (Human), UniProt P03951); experiment: Inhibition of Factor XIa detected by absorption photometry; type: biochemical; settings: absorbance at 405 nm, 10 minutes at 37° C.
Sequence of Coagulation Factor XIa protease (P03951 388-625): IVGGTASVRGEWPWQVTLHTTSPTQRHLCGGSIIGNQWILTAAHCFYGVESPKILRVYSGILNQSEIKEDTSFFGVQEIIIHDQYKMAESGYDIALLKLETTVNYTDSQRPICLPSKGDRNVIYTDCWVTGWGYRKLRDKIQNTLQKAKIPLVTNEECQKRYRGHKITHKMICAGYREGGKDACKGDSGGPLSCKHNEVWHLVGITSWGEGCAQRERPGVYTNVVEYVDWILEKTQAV
Sequence of Coagulation Factor XIa protease (P03951 19-387 partner): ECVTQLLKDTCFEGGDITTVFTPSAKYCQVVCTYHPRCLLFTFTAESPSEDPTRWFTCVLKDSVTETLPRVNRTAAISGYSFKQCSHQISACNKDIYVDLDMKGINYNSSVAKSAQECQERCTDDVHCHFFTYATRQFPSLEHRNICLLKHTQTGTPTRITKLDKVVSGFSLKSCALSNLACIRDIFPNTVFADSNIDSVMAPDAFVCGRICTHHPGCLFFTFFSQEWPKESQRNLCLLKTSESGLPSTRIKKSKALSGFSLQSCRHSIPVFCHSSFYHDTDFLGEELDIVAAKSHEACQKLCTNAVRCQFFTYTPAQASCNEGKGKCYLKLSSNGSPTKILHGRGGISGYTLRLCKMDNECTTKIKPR
How it was run: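 Read-out was absorbance at 405 nm after 10 min incubation at 37° C. Compound dilutions in 100% DMSO (200 to 0.002 μM) were combined with FXIa (2.5 μg/ml solution), then FXIa-specific chromogenic substrate (2 mM solution) was added; both are stock concentrations, not final.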

SMILES | Vd/F [1] | AUC [1] | CL/F [1] | half-life [1] | MRT [1] | Cmax [1] | CT2, concentration doubling APTT (human blood; Table 2) | IC50 [2] | CT2, concentration doubling APTT (human blood; Table 3 comparison) | CT2 value ratio, Example 114 versus comparative Example 2 (human blood; human blood, from Table 3)
COc1cn([C@@H](Cc2ccccc2)C(=O)Nc2ccc(C(=O)O)cc2)c(=O)cc1-c1c(C(C)=O)ccc(Cl)c1F [Example 31, (S)-4-(2-(4-(6-acetyl-3-chloro-2-fluorophenyl)-5-methoxy-2-oxopyridin-1(2H)-yl)-3-phenylpropanamido)benzoic acid] | 21.6 ± 6.31 L/kg | 414 ± 77 ng·h/mL | 82.5 ± 14.6 mL/min/kg | 3.2 ± 1.41 h | 3.24 ± 0.93 h | 234 ± 66 ng/mL | 8.5 µM | – | – | –
CCC(=O)c1ccc(Cl)cc1-c1cc(=O)n([C@@H](CCOC(C)(C)C)C(=O)Nc2ccc3nccnc3c2)cc1OC [Example 114, (S)-4-(tert-butoxy)-2-(4-(5-chloro-2-propionylphenyl)-5-methoxy-2-oxopyridin-1(2H)-yl)-N-(quinoxalin-6-yl)butanamide] | 24 ± 11.1 L/kg | 168 ± 102 ng·h/mL | 278 ± 182 mL/min/kg | 1.11 ± 0.25 h | 1.67 ± 0.23 h | 91.2 ± 51.3 ng/mL | 3.6 µM | 27 nM | 2.9 µM | 4.5 times
CNC(=O)c1ccc(NC(=O)[C@H](Cc2ccccc2)n2cc(OC)c(-c3cc(Cl)ccc3C(C)=O)cc2=O)cc1 [Example 13, (S)-4-(2-(4-(2-acetyl-5-chlorophenyl)-5-methoxy-2-oxopyridin-1(2H)-yl)-3-phenylpropanamido)-N-methylbenzamide] | 26.9 ± 14 L/kg | 241 ± 168 ng·h/mL | 217 ± 151 mL/min/kg | 1.67 ± 0.48 h | 2.36 ± 1.05 h | 119 ± 78 ng/mL | 6.0 µM | 46 nM | – | –
COc1cn([C@@H](CCOC(C)(C)C)C(=O)Nc2ccc(C(=O)O)cc2)c(=O)cc1-c1cc(Cl)ccc1C(C)=O [Example 111, (S)-4-(2-(4-(2-acetyl-5-chlorophenyl)-5-methoxy-2-oxopyridin-1(2H)-yl)-4-(tert-butoxy)butanamido)benzoic acid] | 36.7 ± 13.7 L/kg | 378 ± 98 ng·h/mL | 94.1 ± 30.8 mL/min/kg | 4.94 ± 2.33 h | 4.41 ± 1.99 h | 252 ± 56 ng/mL | 3.2 µM | 18 nM | – | –
COc1cn([C@H](CC2CCC2)C(=O)Nc2ccc(C(=O)O)cc2)c(=O)cc1-c1c(C(C)=O)ccc(Cl)c1F [Example 160, (R)-4-(2-(4-(6-acetyl-3-chloro-2-fluorophenyl)-5-methoxy-2-oxopyridin-1(2H)-yl)-3-cyclobutylpropanamido)benzoic acid] | 34.6 ± 4.13 L/kg | 365 ± 52 ng·h/mL | 92.5 ± 12.3 mL/min/kg | 4.34 ± 0.35 h | 8.3 ± 1.33 h | 53.9 ± 20.3 ng/mL | 3.8 µM | 68 nM | – | –
COc1cn([C@@H](Cc2ccccn2)C(=O)Nc2ccc(C(=O)O)cc2)c(=O)cc1-c1cc(Cl)ccc1C(C)=O [Example 80, (S)-4-(2-(4-(2-acetyl-5-chlorophenyl)-5-methoxy-2-oxopyridin-1(2H)-yl)-3-(pyridin-2-yl)propanamido)benzoic acid] | 15.8 ± 2.29 L/kg | 158 ± 45 ng·h/mL | 222 ± 55.7 mL/min/kg | 0.85 ± 0.14 h | 1.85 ± 0.76 h | 126 ± 50 ng/mL | 7.9 µM | 40 nM | – | –
CCC(=O)c1ccc(Cl)cc1-c1cc(=O)n([C@@H](Cc2ccccc2)C(=O)Nc2ccc(C(=O)O)cc2)cc1OC [Example 9, (S)-4-(2-(4-(5-chloro-2-propionylphenyl)-5-methoxy-2-oxopyridin-1(2H)-yl)-3-phenylpropanamido)benzoic acid] | 31.5 ± 16.1 L/kg | 701 ± 615 ng·h/mL | 69.8 ± 35.2 mL/min/kg | 5.55 ± 1.79 h | 6.78 ± 2.36 h | 128 ± 50 ng/mL | 2.4 µM | 14 nM | – | –
COc1cn([C@@H](Cc2ccccc2)C(=O)Nc2ccc(C(N)=O)cc2)c(=O)cc1-c1cc(Cl)ccc1C(C)=O [Example 11, (S)-4-(2-(4-(2-acetyl-5-chlorophenyl)-5-methoxy-2-oxopyridin-1(2H)-yl)-3-phenylpropanamido)benzamide] | 40.2 ± 18.6 L/kg | 125 ± 50 ng·h/mL | 299 ± 111 mL/min/kg | 1.53 ± 0.33 h | 2.12 ± 0.17 h | 73.1 ± 32.3 ng/mL | 4.2 µM | 13 nM | – | –
CCNC(=O)c1ccc(NC(=O)[C@H](Cc2ccccc2)n2cc(OC)c(-c3cc(Cl)ccc3C(C)=O)cc2=O)cc1 [Example 37, (S)-4-(2-(4-(2-acetyl-5-chlorophenyl)-5-methoxy-2-oxopyridin-1 (2H)-yl)-3-phenylpropanamido)-N-ethylbenzamide] | – | – | – | – | – | – | 7.8 µM | 29 nM | – | –
CCC(=O)c1ccc(Cl)cc1-c1cc(=O)n(C(Cc2ccn(C)n2)C(=O)Nc2ccc(C(=O)O)cc2)cc1OC (centres unmarked) [Example 99, 4-(2-(4-(5-chloro-2-propionylphenyl)-5-methoxy-2-oxopyridin-1(2H)-yl)-3-(1-methyl-1H-pyrazol-3-yl)propanamido)benzoic acid] | – | – | – | – | – | – | 3.5 µM | 29 nM | – | –
COc1cn([C@H](Cc2ccccn2)C(=O)Nc2ccc(C(=O)O)cc2)c(=O)cc1-c1cc(Cl)ccc1C(C)=O [Example 81, (R)-4-(2-(4-(2-acetyl-5-chlorophenyl)-5-methoxy-2-oxopyridin-1(2H)-yl)-3-(pyridin-2-yl)propanamido)benzoic acid] | – | – | – | – | – | – | >10000 µM | 2680 nM | – | –
